Test results reported in patent US8916555B2, “3,5-diaminopyrazole kinase inhibitors” (Axikin Pharmaceuticals, Inc., priority 2012, dated 2014).

Columns and labels:
[1] = target: T1, kinase domain protein of RC kinase (Homo sapiens, UniProt Q56UN5); experiment: Enzymatic assay for kinase inhibitory activity (Crebtide substrate, LANCE readout), kinase domain protein; type: biochemical; details: test compound 1 μM, ATP 1 μM, Crebtide 50 nM
T1 sequence (Q56UN5 1061-1324 limits assumed): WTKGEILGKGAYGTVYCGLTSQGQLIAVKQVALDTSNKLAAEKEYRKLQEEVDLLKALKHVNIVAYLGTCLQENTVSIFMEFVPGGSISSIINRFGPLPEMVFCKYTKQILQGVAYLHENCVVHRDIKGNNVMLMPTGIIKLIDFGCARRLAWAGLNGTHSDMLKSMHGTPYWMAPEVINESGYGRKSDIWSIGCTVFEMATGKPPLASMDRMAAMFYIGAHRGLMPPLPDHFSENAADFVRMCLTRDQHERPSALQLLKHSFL
Method in brief: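 Kinase domain (1 mg/mL final) with 50 nM Crebtide and 1 μM ATP in MAPK buffer (50 mM HEPES, 10 mM MgCl2, 2 mM DTT, 0.01% Tween 20), 45 min RT. Compound at 1 μM or 1×IC50, duplicate. EDTA/anti-Crebtide stop, 45 min development, LANCE 665/615 nm; % inhibition at 1 μM binned A–D.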

Row | inhibition at 1 µM [1] [%] | melting point [°C] | Compound
1 | 20 to 50 | 228 to 232 | NC(=O)c1c(Nc2ccc(NC(=O)c3sc4cc(F)ccc4c3Cl)cc2)n[nH]c1NCc1ccc(O)cc1 [Compound D141, 3-((4-(3-chloro-6-fluorobenzo[b]thiophene-2-carboxamido)phenyl)amino)-5-((4-hydroxybenzyl)amino)-1H-pyrazole-4-carboxamide]
2 | ≥ 50 | 208 to 211 | COc1ccccc1C(=O)Nc1ccc(Nc2n[nH]c(NCc3ccc(O)cc3)c2C(N)=O)cc1 [Compound D143, 5-((4-hydroxybenzyl)amino)-3-((4-(2-methoxybenzamido)phenyl)amino)-1H-pyrazole-4-carboxamide]
3 | ≥ 50 | 229 to 233 | NC(=O)c1c(Nc2cccnc2)n[nH]c1NCc1ccc(O)cc1 [Compound D150, 5-((4-hydroxybenzyl)amino)-3-(pyridin-3-ylamino)-1H-pyrazole-4-carboxamide]
4 | 20 to 50 | 218 to 222 | COc1ccc(CNc2[nH]nc(Nc3cccnc3)c2C(N)=O)cc1 [Compound D151, 5-((4-methoxybenzyl)amino)-3-(pyridin-3-ylamino)-1H-pyrazole-4-carboxamide]
5 | 20 to 50 | 226 to 230 | COc1cccc(CNc2[nH]nc(Nc3cccnc3)c2C(N)=O)c1 [Compound D152]
6 | 5 to 20 | 228 to 231 | NC(=O)c1c(Nc2cccnc2)n[nH]c1NCc1ccc(Cl)cc1 [Compound D154, 5-((4-chlorobenzyl)amino)-3-(pyridin-3-ylamino)-1H-pyrazole-4-carboxamide]
7 | 5 to 20 | 228 to 231 | NC(=O)c1c(Nc2cccnc2)n[nH]c1NCc1ccccc1 [Compound D155, 5-(benzylamino)-3-(pyridin-3-ylamino)-1H-pyrazole-4-carboxamide]
8 | 5 to 20 | 225 to 227 | COc1ccccc1CNc1[nH]nc(Nc2cccc(Cl)c2)c1C(N)=O [Compound D157, 3-((3-chlorophenyl)amino)-5-((2-methoxybenzyl)amino)-1H-pyrazole-4-carboxamide]
9 | ≥ 50 | 203 to 209 | NC(=O)c1c(Nc2ccc(Cl)c(Cl)c2)n[nH]c1NCc1ccc(O)cc1 [Compound D158, 3-((3,4-dichlorophenyl)amino)-5-((4-hydroxybenzyl)amino)-1H-pyrazole-4-carboxamide]
10 | ≥ 50 | 178 to 183 | NC(=O)c1c(Nc2ccc(F)c(Cl)c2)n[nH]c1NCc1ccc(O)cc1 [Compound D159, 3-((3-chloro-4-fluorophenyl)amino)-5-((4-hydroxybenzyl)amino)-1H-pyrazole-4-carboxamide]
11 | 20 to 50 | 199 to 204 | NC(=O)c1c(Nc2ccc(Br)c(Cl)c2)n[nH]c1NCc1ccc(O)cc1 [Compound D160, 3-((4-bromo-3-chlorophenyl)amino)-5-((4-hydroxybenzyl)amino)-1H-pyrazole-4-carboxamide]
12 | ≥ 50 | 206 to 210 | NC(=O)c1c(Nc2ccc(-c3ccccc3)cc2)n[nH]c1NCc1ccc(O)cc1 [Compound D161, 3-([1,1′-biphenyl]-4-ylamino)-5-((4-hydroxybenzyl)amino)-1H-pyrazole-4-carboxamide]
13 | ≥ 50 | 176 to 180 | COc1ccc(Nc2n[nH]c(NCc3ccc(O)cc3)c2C(N)=O)cc1 [Compound D162, 5-((4-hydroxybenzyl)amino)-3-((4-methoxyphenyl)amino)-1H-pyrazole-4-carboxamide]
14 | ≥ 50 | 204 to 207 | NC(=O)c1c(Nc2ccc(F)cc2)n[nH]c1NCc1ccc(O)cc1 [Compound D163]
15 | ≥ 50 | 218 to 222 | CC(C)(C)c1ccc(Nc2n[nH]c(NCc3ccc(O)cc3)c2C(N)=O)cc1 [Compound D164, 3-((4-(tert-butyl)phenyl)amino)-5-((4-hydroxybenzyl)amino)-1H-pyrazole-4-carboxamide]
16 | ≥ 50 | 285 to 290 | NC(=O)c1c(Nc2ccc(C(=O)O)cc2)n[nH]c1NCc1ccc(O)cc1 [Compound D165, 4-((4-carbamoyl-5-((4-hydroxybenzyl)amino)-1H-pyrazol-3-yl)amino)benzoic acid]
